Counter-ions that a name gives are not always drawn. Like-named read-outs stand apart in the source and are kept apart here. Blank lines part the entries; values can stand above or below the compound they belong to.
Columns and labels:
[1] = tested on: human colorectal cancer cell SW620; assay: In vivo pharmacodynamic study in subcutaneous xenograft tumor nude mouse model of SW620; conditions: BID, p.o.
Experimental: Human colorectal cancer cell SW620 cells of the 7th passage were cultured in an L-15 medium containing 10% fetal bovine serum, 100 U/mL penicillin and 100 μg/mL streptomycin through in vitro monolayer culture in an incubator at 37° C./[…] for 4 passages with conventional medium replacement. At a cell saturation of 80-90%, the cells were digested with pancreatin-EDTA, counted and resuspended in PBS at a density of 5×10^6 cells/100 μL.
Cell inoculation: Each mouse was inoculated on the right cervical dorsum with 0.1 mL of the cell suspension of 5×10^6 SW620 cells in PBS. At an average tumor volume up to about 134 mm^3, the mice were randomly grouped and administrated.
Tumor diameters were measured twice weekly using a vernier caliper. The tumor volume was calculated using the following formula: V=0.5 a×b^2, where a and b represent the long diameter and short diameter of the tumor, respectively.
The anti-tumor therapeutic effect of the compound was evaluated by TGI (%) or relative tumor proliferation rate T/C (%). Relative tumor proliferation rate T/C (%)=TRTV/CRTV×100% (TRTV: RTV of treatment group; CRTV: RTV of negative control group). Relative tumor volumes (RTVs) were calculated from the tumor measurement results using the following formula: RTV=Vt/VO, where VO is the average tumor volume measured at the time of grouping (i.e., DO), Vt is the average tumor volume measured at a certain measurement, and TRTV and CRTV are taken from the data measured on the same day.
TGI (%), reflects the tumor growth inhibition rate. TGI (%)=[(1−(average tumor volume at the end of administration in a treatment group−average tumor volume at the start of administration of the treatment group))/(average tumor volume at the end of treatment of the vehicle control group−average tumor volume at the start of treatment of the vehicle control group)]×100%.
After day 22 of the grouping, mice were euthanized, plasma and tumors were sampled and tumors were weighed and photographed.

[2] = tested on: Colo205 cells; assay: Inhibitory effect against Colo205 cell proliferation (CellTiter-Glo); type: cell-based; conditions: incubation 3 days
Experimental: 1640 medium; fetal bovine serum; penicillin/streptomycin antibiotics purchased from Wisent;
CellTiter-Glo (chemiluminescence detection reagent for cell viability) reagent purchased from Promega;
COL0205 cell line purchased from Wuhan Procell Life Science&Technology Co., Ltd; and
(§1) Nivo multi-marker analyzer (PerkinElmer).
COL0205 cells were plated on to white 96-well plates by adding 80 μL of cell suspension (containing 3000 COL0205 cells) to each well. The cell plate was incubated in a CO2 incubator overnight.
A test compound was serially 3-fold diluted to an 8th concentration, i.e., from 2 mM to 920 nM, and the duplicate well experiment was set up. 78 μL of medium was added to an intermediate plate, 2 μL of the serially diluted compound was transferred to corresponding wells of the intermediate plate, and after mixing, the mixture was transferred to the cell plate at 20 μL per well. The concentration of the compound transferred to the cell plate ranged from 10 μM to 4.57 nM. The cell plate was incubated in a CO2 incubator for 3 days. Another cell plate was provided for reading signal values on the day of compound addition and these values were used as […] in data analysis. The chemiluminescence detection reagent for cell viability was added to this cell plate at 25 μL per well and the luminescence signals were stabilized by incubation at room temperature for 10 min. Readings were taken using the multi-marker analyzer. The chemiluminescence detection reagent for cell viability was added to the cell plate at 25 μL per well and the luminescence signals were stabilized by incubation at room temperature for 10 min. Readings were taken using the multi-marker analyzer.
The original data were converted to inhibition using the equation (Sample−Min)/(Max−Min)×100%, and the IC50 value was then curve fitted using four parameters (obtained from the “log(inhibitor) vs. response-Variableslope” model in GraphPadPrism). Table 2 provides the inhibitory activity of the compounds disclosed herein against COL0205 cell proliferation.

[3] = Single-dose pharmacokinetic study in mice; type: in vivo; conditions: male CD-1 mice
Experimental: To evaluate the pharmacokinetic behavior by using male CD-1 mice as test animals and determining the drug concentrations of the compounds in the plasma after single-dose administration. Healthy adult male CD-1 mice were selected for intragastric administration. A compound was mixed with an appropriate amount of 5% DMSO/95% (10% hydroxypropyl-β-cyclodextrin), vortexed and sonicated to prepare a 1 mg/mL clear solution for later use. After the mice were administered intravenously at 2 mg/kg and orally at 10 mg/kg, whole blood was collected at certain time points, and plasma was separated. After pretreatment of the samples, the drug concentration was measured by LC-MS/MS, and pharmacokinetic parameters were calculated using Phoenix WinNonlin software.

[4] = molecular target: T1, Cdc7/DBF4 (Homo sapiens, UniProt O00311); assay: Inhibitory effect against activity of Cdc7/DBF4 (ADP-Glo kinase detection kit); type: biochemical; conditions: 10 μM ATP, 25° C., 60 min
T1 construct: purchased Promega
Experimental: Cdc7/DBF4 kinase detection kit purchased from Promega; and
as §1
An enzyme, a substrate, adenosine triphosphate and an inhibitor were diluted with the kinase buffer in the kit. A test compound was serially 5-fold diluted to an 8th concentration, i.e., from 10 μM to 0.13 nM, with the DMSO concentration being 5%, and the duplicate well experiment was set up. To a microplate were added 1 μL of inhibitors of various concentration gradients, 2 μL of CDCl7/DBF4 kinase (6.25 ng), 2 μL of a mixture of substrate and ATP (10 μM adenosine triphosphate, 0.2 μg/μL substrate), and the final concentration gradient of the compound was diluted from 2 μM to 0.025 nM. The reaction system was left reacting at 25° C. for 60 min. After the reaction was completed, 5 μL of ADP-Glo reagent was added to each well, and the reaction was continued at 25° C. for 40 min. After the reaction was completed, 10 μL of the kinase detection reagent was added to each well. After 30 min of reaction at 25° C., the chemiluminescence was read using the multi-marker analyzer with an integration time of 0.5 s.
The original data were converted to inhibition using the equation (Sample−Min)/(Max−Min)×100%, and the IC50 value was then curve fitted using four parameters (obtained from the “log(inhibitor) vs. response-Variableslope” model in GraphPadPrism). Table 1 provides the enzymatic inhibitory activity of the compounds disclosed herein against Cdc7/DBF4.

[5] = mouse, plasma, IV: 2 mg/kg, PO: 10 mg/kg

T1 sequence (O00311 whole entry): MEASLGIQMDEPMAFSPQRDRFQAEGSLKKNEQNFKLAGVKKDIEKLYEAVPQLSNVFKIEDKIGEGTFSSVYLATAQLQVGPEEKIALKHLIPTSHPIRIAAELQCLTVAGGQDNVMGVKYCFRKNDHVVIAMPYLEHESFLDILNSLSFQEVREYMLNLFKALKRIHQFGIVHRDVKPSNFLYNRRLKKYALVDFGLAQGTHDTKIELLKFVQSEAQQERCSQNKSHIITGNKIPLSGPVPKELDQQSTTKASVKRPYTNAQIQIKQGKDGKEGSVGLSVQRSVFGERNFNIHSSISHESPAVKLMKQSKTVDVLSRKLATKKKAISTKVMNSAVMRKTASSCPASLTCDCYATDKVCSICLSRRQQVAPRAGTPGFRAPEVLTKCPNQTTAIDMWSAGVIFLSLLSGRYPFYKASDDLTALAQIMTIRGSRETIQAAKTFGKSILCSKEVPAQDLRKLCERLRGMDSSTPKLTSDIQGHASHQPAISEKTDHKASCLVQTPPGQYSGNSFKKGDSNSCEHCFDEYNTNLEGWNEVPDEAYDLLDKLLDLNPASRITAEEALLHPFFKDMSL
T1 sequence (Q9UBU7 whole entry partner): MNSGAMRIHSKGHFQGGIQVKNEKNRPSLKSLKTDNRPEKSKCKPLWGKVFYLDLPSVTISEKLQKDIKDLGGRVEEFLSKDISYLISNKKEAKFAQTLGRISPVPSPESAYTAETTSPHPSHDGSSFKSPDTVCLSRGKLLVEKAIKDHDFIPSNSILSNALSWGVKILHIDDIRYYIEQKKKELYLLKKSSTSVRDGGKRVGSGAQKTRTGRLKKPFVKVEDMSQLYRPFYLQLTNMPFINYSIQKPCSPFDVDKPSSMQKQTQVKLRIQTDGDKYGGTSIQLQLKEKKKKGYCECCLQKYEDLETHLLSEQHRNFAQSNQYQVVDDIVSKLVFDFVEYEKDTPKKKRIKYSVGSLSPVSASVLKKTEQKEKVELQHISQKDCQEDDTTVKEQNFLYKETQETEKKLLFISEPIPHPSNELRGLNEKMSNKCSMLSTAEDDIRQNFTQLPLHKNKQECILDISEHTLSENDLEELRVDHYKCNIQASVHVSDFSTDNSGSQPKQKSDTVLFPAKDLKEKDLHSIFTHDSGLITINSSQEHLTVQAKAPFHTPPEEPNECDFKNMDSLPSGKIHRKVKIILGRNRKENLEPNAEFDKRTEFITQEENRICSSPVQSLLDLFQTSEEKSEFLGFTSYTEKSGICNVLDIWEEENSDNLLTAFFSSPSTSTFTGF

- IC50 [4]: 3.73 nM
Structure (SMILES): O=c1[nH]c(C2CCCN2)nc2c3c(sc12)-c1c[nH]nc1CCC3 (single isomer, unassigned) [Compound 2-1 hydrochloride]

- IC50 [4]: 1.52 nM
Structure (SMILES): O=c1[nH]c(C2CCCN2)nc2c3c(sc12)-c1c[nH]nc1CCC3 (single isomer, unassigned) [Compound 2-2 hydrochloride]

- IC50 [4]: 1.19 nM
Structure (SMILES): CN1CCCC1c1nc2c3c(sc2c(=O)[nH]1)-c1c[nH]nc1CCC3 (single isomer, unassigned) [Compound 3-1 hydrochloride]

- IC50 [4]: 0.42 nM
Structure (SMILES): CN1CCCC1c1nc2c3c(sc2c(=O)[nH]1)-c1c[nH]nc1CCC3 (single isomer, unassigned) [Compound 3-2 hydrochloride]

- IC50 [4]: 1.7 nM
Structure (SMILES): CC(C)N1CCCC1c1nc2c3c(sc2c(=O)[nH]1)-c1c[nH]nc1CCC3 (single isomer, unassigned) [Compound 6-1 hydrochloride]

- IC50 [4]: 0.99 nM
Structure (SMILES): CC(C)N1CCCC1c1nc2c3c(sc2c(=O)[nH]1)-c1c[nH]nc1CCC3 (single isomer, unassigned) [Compound 6-2 hydrochloride]

- IC50 [4]: 3.07 nM
Structure (SMILES): CN1CCCCC1c1nc2c3c(sc2c(=O)[nH]1)-c1c[nH]nc1CCC3 (single isomer, unassigned) [Compound 7-1 formate]

- IC50 [4]: 2.7 nM
Structure (SMILES): CN1CCCCC1c1nc2c3c(sc2c(=O)[nH]1)-c1c[nH]nc1CCC3 (single isomer, unassigned) [Compound 7-2 formate]

- IC50 [4]: 4.85 nM
Structure (SMILES): CN1CCCC(c2nc3c4c(sc3c(=O)[nH]2)-c2c[nH]nc2CCC4)C1 (single isomer, unassigned) [Compound 9-1 hydrochloride]

- IC50 [4]: 1.09 nM
Structure (SMILES): CN1CCCC(c2nc3c4c(sc3c(=O)[nH]2)-c2c[nH]nc2CCC4)C1 (single isomer, unassigned) [Compound 9-2 hydrochloride]

Further lines, the compound ahead of its results:

Structure (SMILES): O=c1[nH]c([C@H]2CC3CCN2CC3)nc2c3c(sc12)-c1c[nH]nc1CCC3 (single isomer, unassigned) [Compound 1-1 hydrochloride]
- Tumor volume (Day 1) ([1]; 2.5 mg/kg): 134 ± 13 mm^3
- RTV (Day 21) ([1]; 2.5 mg/kg): 1.88
- T/C (%) (Day 21) ([1]; 2.5 mg/kg): 22%
- TGI (%) (Day 21) ([1]; 2.5 mg/kg): 89%
- Tumor volume (Day 21) ([1]; 2.5 mg/kg): 237 ± 27 mm^3
- Tumor volume (Day 1) ([1]; 5 mg/kg): 134 ± 15 mm^3
- RTV (Day 21) ([1]; 5 mg/kg): 0.93
- T/C (%) (Day 21) ([1]; 5 mg/kg): 11%
- TGI (%) (Day 21) ([1]; 5 mg/kg): 100%
- Tumor volume (Day 21) ([1]; 5 mg/kg): 133 ± 32 mm^3
- Tumor volume (Day 1) ([1]; 7.5 mg/kg): 134 ± 14 mm^3
- RTV (Day 21) ([1]; 7.5 mg/kg): 0.31
- T/C (%) (Day 21) ([1]; 7.5 mg/kg): 4%
- TGI (%) (Day 21) ([1]; 7.5 mg/kg): 108%
- Tumor volume (Day 21) ([1]; 7.5 mg/kg): 53 ± 16 mm^3
- IC50 [2]: 13.8 nM
- Maximum concentration ([3]; IV: 2 mg/kg, PO: 10 mg/kg): 2230 nM
- AUC(0-t) ([3]; mouse, plasma, IV 2 mg/kg, read-out: AUC0-last (intravenous injection)): 2.45 µM·h
- bioavailability [3, 5]: 71.4%
- clearance [3, 5]: 35.2 mL/min/kg
- half-life [3, 5]: 4.03 h
- Vd ([3]; mouse, plasma, IV: 2 mg/kg, PO: 10 mg/kg, read-out: Apparent volume of distribution): 4.13 L/kg
- AUC(0-t) ([3]; mouse, plasma, PO 10 mg/kg, read-out: AUC0-last (oral)): 9.08 µM·h
- IC50 [4]: 3.02 nM

Structure (SMILES): O=c1[nH]c([C@H]2CC3CCN2CC3)nc2c3c(sc12)-c1c[nH]nc1CCC3 (single isomer, unassigned) [Compound 1-2 hydrochloride]
- IC50 [2]: 53.6 nM
- IC50 [4]: 1.29 nM

Structure (SMILES): CC1(c2nc3c4c(sc3c(=O)[nH]2)-c2c[nH]nc2CCC4)CCCN1 (single isomer, unassigned) [Compound 4-1 hydrochloride]
- IC50 [4]: 4.56 nM

Structure (SMILES): CC1(c2nc3c4c(sc3c(=O)[nH]2)-c2c[nH]nc2CCC4)CCCN1 (single isomer, unassigned) [Compound 4-2 hydrochloride]
- IC50 [4]: 6.73 nM

Structure (SMILES): CN1CCCC1(C)c1nc2c3c(sc2c(=O)[nH]1)-c1c[nH]nc1CCC3 (single isomer, unassigned) [Compound 5-1 hydrochloride]
- IC50 [4]: 2.04 nM

Structure (SMILES): CN1CCCC1(C)c1nc2c3c(sc2c(=O)[nH]1)-c1c[nH]nc1CCC3 (single isomer, unassigned) [Compound 5-2 hydrochloride]
- IC50 [4]: 2.35 nM

Structure (SMILES): O=c1[nH]c(C2CCCNC2)nc2c3c(sc12)-c1c[nH]nc1CCC3 (single isomer, unassigned) [Compound 8-1 hydrochloride]
- IC50 [4]: 4.27 nM

Structure (SMILES): O=c1[nH]c(C2CCCNC2)nc2c3c(sc12)-c1c[nH]nc1CCC3 (single isomer, unassigned) [Compound 8-2 hydrochloride]
- IC50 [4]: 1.17 nM

Structure (SMILES): O=c1[nH]c(C2C3CCN2CC3)nc2c3c(sc12)-c1c[nH]nc1CCC3 (single isomer, unassigned) [Compound 14-1 hydrochloride]
- IC50 ([2]; Homo sapiens, COLO 205, 72 h): 50.1 nM
- IC50 [4]: 1.21 nM

Structure (SMILES): O=c1[nH]c(C2C3CCN2CC3)nc2c3c(sc12)-c1c[nH]nc1CCC3 (single isomer, unassigned) [Compound 14-2 hydrochloride]
- IC50 [4]: 1.43 nM

Structure (SMILES): O=c1[nH]c(C2CCNCC2)nc2c3c(sc12)-c1c[nH]nc1CCC3 [Compound 10 hydrochloride]
- IC50 [4]: 1.69 nM

Structure (SMILES): CN1CCC(c2nc3c4c(sc3c(=O)[nH]2)-c2c[nH]nc2CCC4)CC1 [Compound 11 hydrochloride]
- IC50 [4]: 4.85 nM

Structure (SMILES): CC1(c2nc3c4c(sc3c(=O)[nH]2)-c2c[nH]nc2CCC4)CCNCC1 [Compound 12 hydrochloride]
- IC50 [4]: 1.38 nM

Structure (SMILES): CN1CCC(C)(c2nc3c4c(sc3c(=O)[nH]2)-c2c[nH]nc2CCC4)CC1 [Compound 13 hydrochloride]
- IC50 [4]: 5.66 nM

Structure (SMILES): Cc1n[nH]cc1-c1cc2nc([C@@H]3CC4CCN3CC4)[nH]c(=O)c2s1 [TAK-931, reference compound]
- Tumor volume (Day 1) ([1]; 40 mg/kg): 134 ± 13 mm^3
- RTV (Day 21) ([1]; 40 mg/kg): 1.36
- T/C (%) (Day 21) ([1]; 40 mg/kg): 16%
- TGI (%) (Day 21) ([1]; 40 mg/kg): 96%
- Tumor volume (Day 21) ([1]; 40 mg/kg): 176 ± 27 mm^3

— US20220235068A1, “TETRACYCLIC COMPOUNDS AS CDC7 INHIBITORS” (Chia Tai Tianqing Pharmaceutical Group Co., Ltd., priority 2019, published 2022)
